Reference: patent US12171756B2, “NLRP3 modulators” (Innate Tumor Immunity, Inc., priority 2017, dated 2024)
Where two headings read alike, the source gives them in different places.

Assays:
[1] = system: IL-1β production in PMA-differentiated THP-1 cells; assay: Measurement of IL-1β production in PMA-differentiated THP-1 cells (ELISA, 4 hours); type: cell-based, human; conditions: assayed using one or more of the described procedures, read-out: NLRP3 hIL1B IC50
How it was run: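 THP-1 cells differentiated with PMA (10 μg/ml, 24 h), replated at 1×10^6 cells/ml in RPMI with 2% FBS and exposed to compounds (e.g. 0.1–100 μM, 1% DMSO final) for 4 hours. IL-1β in cell-free supernatant quantified by ELISA against vehicle control.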

human TLR7 = molecular target: T1, human TLR7 (Homo sapiens, UniProt Q9NYK1); assay: In vitro human TLR7 binding reporter assay (HEK-Blue, NF-kB/AP1-inducible SEAP); type: cell-based; conditions: HEK-Blue human TLR7 SEAP reporter cells; activity range classes; read-out: TLR7 Agonist EC50
T1 construct: host or cells: human HEK-Blue cells (HEK293-derived) co-expressing TLR7 and an NF-kB/AP1-inducible SEAP reporter
T1 sequence (Q9NYK1 27-1049): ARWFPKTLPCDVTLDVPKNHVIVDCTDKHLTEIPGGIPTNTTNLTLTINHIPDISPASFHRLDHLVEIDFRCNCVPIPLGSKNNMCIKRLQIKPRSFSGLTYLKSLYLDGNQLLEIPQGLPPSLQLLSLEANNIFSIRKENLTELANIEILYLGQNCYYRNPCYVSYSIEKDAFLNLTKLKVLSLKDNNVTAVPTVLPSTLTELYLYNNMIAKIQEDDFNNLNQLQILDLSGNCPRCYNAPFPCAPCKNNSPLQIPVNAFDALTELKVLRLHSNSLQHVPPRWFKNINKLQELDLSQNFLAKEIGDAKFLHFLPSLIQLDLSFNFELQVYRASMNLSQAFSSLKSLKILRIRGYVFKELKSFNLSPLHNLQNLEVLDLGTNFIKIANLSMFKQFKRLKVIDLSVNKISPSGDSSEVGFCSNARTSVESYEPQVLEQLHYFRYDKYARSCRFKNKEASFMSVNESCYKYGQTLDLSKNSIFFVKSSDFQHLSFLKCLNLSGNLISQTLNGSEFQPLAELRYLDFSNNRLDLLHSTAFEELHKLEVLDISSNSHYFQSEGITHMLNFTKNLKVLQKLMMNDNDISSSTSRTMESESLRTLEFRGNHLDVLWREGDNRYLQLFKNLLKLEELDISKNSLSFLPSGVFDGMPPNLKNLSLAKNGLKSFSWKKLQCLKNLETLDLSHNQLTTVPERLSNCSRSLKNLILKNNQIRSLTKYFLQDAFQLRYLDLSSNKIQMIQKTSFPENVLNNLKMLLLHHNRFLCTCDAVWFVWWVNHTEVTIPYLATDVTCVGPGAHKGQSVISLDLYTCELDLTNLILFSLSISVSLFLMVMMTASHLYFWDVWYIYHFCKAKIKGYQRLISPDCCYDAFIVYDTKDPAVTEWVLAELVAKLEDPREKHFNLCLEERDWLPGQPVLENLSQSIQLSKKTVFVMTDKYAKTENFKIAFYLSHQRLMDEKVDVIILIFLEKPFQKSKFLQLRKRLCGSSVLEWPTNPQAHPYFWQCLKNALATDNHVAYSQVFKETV
How it was run: (§1)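 EC50s come from NF-kB/AP1-driven SEAP secretion in HEK-Blue cells expressing TLR7 or TLR8, measured with Quanti-Blue after an 18 h compound incubation. Maximal response is defined by a 50 μM reference standard.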

human TLR8 = molecular target: T2, human TLR8 (Homo sapiens, UniProt Q9NR97); assay: In vitro human TLR8 binding reporter assay (HEK-Blue, NF-kB/AP1-inducible SEAP); type: cell-based; conditions: HEK-Blue human TLR8 SEAP reporter cells; activity range classes; read-out: TLR8 Agonist EC50
T2 construct: host or cells: human HEK-Blue cells (HEK293-derived) co-expressing TLR8 and an NF-kB/AP1-inducible SEAP reporter
T2 sequence (Q9NR97 27-1041): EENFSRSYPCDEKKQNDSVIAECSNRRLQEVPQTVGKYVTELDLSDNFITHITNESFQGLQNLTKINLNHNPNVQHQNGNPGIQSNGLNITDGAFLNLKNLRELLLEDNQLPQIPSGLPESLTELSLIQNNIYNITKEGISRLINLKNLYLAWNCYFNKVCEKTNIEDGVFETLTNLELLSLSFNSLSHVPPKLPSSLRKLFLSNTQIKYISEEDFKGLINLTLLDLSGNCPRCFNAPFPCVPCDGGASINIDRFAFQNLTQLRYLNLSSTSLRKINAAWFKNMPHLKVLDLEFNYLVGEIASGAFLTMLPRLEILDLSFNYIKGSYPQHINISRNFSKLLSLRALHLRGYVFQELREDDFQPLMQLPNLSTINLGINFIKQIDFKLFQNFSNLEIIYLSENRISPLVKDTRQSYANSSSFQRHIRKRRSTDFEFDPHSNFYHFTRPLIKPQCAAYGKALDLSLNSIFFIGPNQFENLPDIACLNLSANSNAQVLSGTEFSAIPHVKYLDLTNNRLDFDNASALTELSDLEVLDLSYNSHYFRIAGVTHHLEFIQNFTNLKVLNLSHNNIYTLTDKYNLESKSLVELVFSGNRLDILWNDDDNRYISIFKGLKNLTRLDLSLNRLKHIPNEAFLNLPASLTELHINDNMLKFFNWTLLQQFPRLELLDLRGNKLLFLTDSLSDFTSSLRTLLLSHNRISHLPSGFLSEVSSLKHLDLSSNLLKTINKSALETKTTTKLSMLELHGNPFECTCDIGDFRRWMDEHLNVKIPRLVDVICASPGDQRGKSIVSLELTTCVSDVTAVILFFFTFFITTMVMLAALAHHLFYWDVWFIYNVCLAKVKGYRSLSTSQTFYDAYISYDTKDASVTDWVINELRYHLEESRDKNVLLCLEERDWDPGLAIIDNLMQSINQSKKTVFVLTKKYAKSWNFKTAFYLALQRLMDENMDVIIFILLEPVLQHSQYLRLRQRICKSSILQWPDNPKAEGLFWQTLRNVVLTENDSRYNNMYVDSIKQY
How it was run: as §1

[2] = Homo sapiens, THP-1, human IL-1β production

Structure (SMILES) | IC50 [1, 2] [µM] | EC50 (human TLR7) [µM] | EC50 (human TLR8) [µM] | IC50 ([1]; human IL-1β production) [µM]
Nc1cc(N[C@@H]2CCCOC2)c2ccc(-c3ccn[nH]3)cc2n1 [Compound 289] | 0.85 | > 100 | > 100 | –
CCO[C@H]1COC[C@@H]1Nc1cc(N)nc2cc(-c3ccn[nH]3)ccc12 [Compound 291] | 1.67 | > 100 | > 100 | –
Nc1cc(NCc2cc[nH]n2)c2ccc(-n3cccn3)cc2n1 [Compound 292] | 0.34 | > 100 | > 100 | –
Nc1cc(NCCc2ccccn2)c2ccc(-n3cccn3)cc2n1 [Compound 293] | 0.87 | > 100 | > 100 | –
Nc1cc(NCc2nc[nH]n2)c2ccc(-n3cccn3)cc2n1 [Compound 294] | 0.21 | > 100 | > 100 | –
Nc1cc(N[C@@H]2CCC[C@@H]2O)c2ccc(-n3cccn3)cc2n1 [Compound 295] | 0.31 | > 100 | > 100 | –
Nc1cc(NCCO)c2ccc(-n3cccn3)cc2n1 [Compound 296] | 0.56 | > 100 | > 100 | –
Nc1cc(NCCc2nccs2)c2ccc(-n3cccn3)cc2n1 [Compound 297] | 0.57 | > 100 | > 100 | –
Nc1cc(NCc2ncc[nH]2)c2ccc(-n3cccn3)cc2n1 [Compound 298] | 0.15 | > 100 | > 100 | –
Nc1cc(NCC(F)(F)c2ccccn2)c2ccc(-n3cccn3)cc2n1 [Compound 299] | 0.65 | > 100 | > 100 | –
Nc1cc(NCc2ccccn2)c2ccc(-n3cccn3)cc2n1 [Compound 300] | 0.54 | > 100 | > 100 | –
CC(C)(O)CCNc1cc(N)nc2cc(-n3cccn3)ccc12 [Compound 301] | 1.01 | > 100 | > 100 | –
Nc1cc(NCCn2cccn2)c2ccc(-n3cccn3)cc2n1 [Compound 302] | 0.05 | > 100 | > 100 | –
Cc1nc(CNc2cc(N)nc3cc(-n4cccn4)ccc23)cs1 [Compound 303] | 0.14 | > 100 | > 100 | –
Nc1cc(N[C@H]2CCC[C@H]2O)c2ccc(-n3cccn3)cc2n1 [Compound 304] | 0.37 | > 100 | > 100 | –
CS(=O)(=O)CCNc1cc(N)nc2cc(-n3cccn3)ccc12 [Compound 305] | 0.64 | > 100 | > 100 | –
CC(=O)NCCNc1cc(N)nc2cc(-n3cccn3)ccc12 [Compound 306] | 1.1 | > 100 | > 100 | –
Nc1cc(NCc2cnc[nH]2)c2ccc(-n3cccn3)cc2n1 [Compound 307] | 0.11 | > 100 | > 100 | –

Structure (SMILES) | IC50 [1, 2] [µM] | EC50 (human TLR7) [µM] | EC50 (human TLR8) [µM] | IC50 ([1]; human IL-1β production) [µM]
Nc1cc(NCCn2cncn2)c2ccc(-n3cccn3)cc2n1 [Compound 308] | 0.52 | > 100 | > 100 | –
Nc1cc(NCc2cccnn2)c2ccc(-n3cccn3)cc2n1 [Compound 309] | 0.42 | > 100 | > 100 | –
CC(C)(CO)COc1cc(N)nc2cc(-c3ccn[nH]3)ccc12 [Compound 310] | 0.11 | > 100 | > 100 | –
Cn1nncc1COc1cc(N)nc2cc(-c3ccn[nH]3)ccc12 [Compound 311] | 3.13 | > 100 | > 100 | –
Cn1ncnc1COc1cc(N)nc2cc(-c3ccn[nH]3)ccc12 [Compound 312] | 1.59 | > 100 | > 100 | –
Nc1cc(OCc2ccn[nH]2)c2ccc(-c3ccn[nH]3)cc2n1 [Compound 313, 4-((1H-pyrazol-5-yl)methoxy)-7-(1H-pyrazol-5-yl)quinolin-2-amine] | 0.11 | > 100 | > 100 | –
Nc1ccc2ccc(-c3ccn[nH]3)cc2n1 [Compound 314, 7-(1H-pyrazol-5-yl)quinolin-2-amine] | 1.8 | > 100 | > 100 | –
Nc1cc(NC(CO)CO)c2ccc(-c3ccn[nH]3)cc2n1 [Compound 315, 2-((2-amino-7-(1H-pyrazol-5-yl)quinolin-4-yl)amino)propane-1,3-diol] | 1.52 | > 100 | > 100 | –
Nc1cc(NCc2ncccn2)c2ccc(-c3ccn[nH]3)cc2n1 [Compound 316, 7-(1H-pyrazol-5-yl)-N4-(pyrimidin-2-ylmethyl)quinoline-2,4-diamine] | 0.56 | > 100 | > 100 | –
Nc1cc(NCc2cncnc2)c2ccc(-c3ccn[nH]3)cc2n1 [Compound 317] | 0.69 | > 100 | > 100 | –
Nc1cc(NCCCO)c2cc(F)c(-c3ccn[nH]3)cc2n1 [Compound 318, 3-((2-amino-6-fluoro-7-(1H-pyrazol-5-yl)quinolin-4-yl)amino)propan-1-ol] | 0.07 | > 100 | > 100 | –
Cc1cc2c(NCCCO)cc(N)nc2cc1-c1ccn[nH]1 [Compound 319] | 25.7 | > 100 | > 100 | –
COc1cc2c(NCCCO)cc(N)nc2cc1-c1ccn[nH]1 [Compound 320] | 27.7 | > 100 | > 100 | –
Nc1cc(NCCc2cccs2)c2ccc(-c3cc[nH]n3)cc2n1 [Compound 322, 7-(1H-pyrazol-3-yl)-N4-(2-(thiophen-2-yl)ethyl)quinoline-2,4-diamine] | 0.61 | > 100 | > 100 | –
Nc1cc(N[C@@H]2CCNC2)c2ccc(-c3ccn[nH]3)cc2n1 [Compound 323] | – | > 100 | > 100 | 5.72
Nc1cc(N[C@H]2CCCNC2)c2ccc(-c3ccn[nH]3)cc2n1 [Compound 324] | 1.76 | > 100 | > 100 | –
Nc1cc(NCC2CNC2)c2ccc(-c3ccn[nH]3)cc2n1 [Compound 325] | 23.2 | > 100 | > 100 | –
